ChEMBL document CHEMBL3044552, “Synthesis and biological evaluation of 1-(3-chloro-2-oxo-4-phenylazetidin-1-yl)-3-(2-oxo-2-(10H-phenothiazin-10-yl)ethyl)urea derivatives” (Med Chem Res, 2013)
Values after ≈ are worked out from the molar mass of the structure shown. Active and inactive are the calls of the source. The calls are words filed in the database; no cut-off is given here.

How the values were obtained:
Bacillus subtilis [1] = assay: Antibacterial activity against Bacillus subtilis after 18 hr by serial dilution method; type: functional
HeLa [2] = assay: Growth inhibition of Homo sapiens (human) HeLa cells at 6.25 uM after 48 hr by MTT assay; type: functional; conditions: read-out: GI
Salmonella paratyphi [3] = assay: Antibacterial activity against Salmonella enterica subsp. enterica serovar Paratyphi A after 18 hr by serial dilution method; type: functional
HeLa [4] = assay: Growth inhibition of Homo sapiens (human) HeLa cells at 50 uM after 48 hr by MTT assay; type: functional; conditions: read-out: GI
Candida albicans [5] = assay: Antifungal activity against Candida albicans after 24 hr by disk diffusion method; type: functional
[6] = tested on: Mycobacterium tuberculosis; assay: Growth inhibition of Mycobacterium tuberculosis H37Rv at 10 ug/ml after 7 days by resazurin microplate assay; type: functional, organism-based
[7] = tested on: Staphylococcus epidermidis; assay: Antibacterial activity against Staphylococcus albus after 18 hr by serial dilution method; type: functional
Escherichia coli [8] = assay: Antibacterial activity against Escherichia coli after 24 hr by disc diffusion method; type: functional
Vibrio cholerae [9] = assay: Antibacterial activity against Vibrio cholerae after 18 hr by serial dilution method; type: functional
Trichophyton rubrum [10] = assay: Antifungal activity against Trichophyton rubrum after 24 hr by disk diffusion method; type: functional
Micrococcus luteus [11] = assay: Antibacterial activity against Micrococcus luteus after 18 hr by serial dilution method; type: functional
Trichophyton rubrum [12] = assay: Antifungal activity against Trichophyton rubrum after 18 hr by serial dilution method; type: functional
HeLa [13] = assay: Growth inhibition of Homo sapiens (human) HeLa cells at 25 uM after 48 hr by MTT assay; type: functional; conditions: read-out: GI
[14] = tested on: Mycobacterium tuberculosis; assay: Growth inhibition of Mycobacterium tuberculosis H37Rv at 1 ug/ml after 7 days by resazurin microplate assay; type: functional, organism-based
Staphylococcus aureus [15] = assay: Antibacterial activity against Staphylococcus aureus after 24 hr by disk diffusion method; type: functional
Staphylococcus aureus [16] = assay: Antibacterial activity against Staphylococcus aureus after 18 hr by serial dilution method; type: functional
Candida albicans [17] = assay: Antifungal activity against Candida albicans after 18 hr by serial dilution method; type: functional
Micrococcus luteus [18] = assay: Antibacterial activity against Micrococcus luteus after 24 hr by disk diffusion method; type: functional
HeLa [19] = assay: Cytotoxicity against Homo sapiens (human) HeLa cells after 48 hr by MTT assay; type: functional, cell-based
Aspergillus niger [20] = assay: Antifungal activity against Aspergillus niger after 24 hr by disc diffusion method; type: functional
HeLa [21] = assay: Growth inhibition of Homo sapiens (human) HeLa cells at 12.5 uM after 48 hr by MTT assay; type: functional; conditions: read-out: GI
Salmonella paratyphi [22] = assay: Antibacterial activity against Salmonella enterica subsp. enterica serovar Paratyphi A after 24 hr by disk diffusion method; type: functional
Vibrio cholerae [23] = assay: Antibacterial activity against Vibrio cholerae after 24 hr by disk diffusion method; type: functional
Escherichia coli [24] = assay: Antibacterial activity against Escherichia coli after 18 hr by serial dilution method; type: functional
[25] = tested on: Mycobacterium tuberculosis; assay: Growth inhibition of Mycobacterium tuberculosis H37Rv at 100 ug/ml after 7 days by resazurin microplate assay; type: functional, organism-based
Aspergillus niger [26] = assay: Antifungal activity against Aspergillus niger after 18 hr by serial dilution method; type: functional
Monascus purpureus [27] = assay: Antifungal activity against Monascus purpureus after 24 hr by disk diffusion method; type: functional
[28] = tested on: Staphylococcus epidermidis; assay: Antibacterial activity against Staphylococcus albus after 24 hr by disk diffusion method; type: functional
Bacillus subtilis [29] = assay: Antibacterial activity against Bacillus subtilis after 24 hr by disk diffusion method; type: functional
Monascus purpureus [30] = assay: Antifungal activity against Monascus purpureus after 18 hr by serial dilution method; type: functional
Pseudomonas aeruginosa [31] = assay: Antibacterial activity against Pseudomonas aeruginosa after 18 hr by serial dilution method; type: functional
HeLa [32] = assay: Growth inhibition of Homo sapiens (human) HeLa cells at 100 uM after 48 hr by MTT assay; type: functional; conditions: read-out: GI
Pseudomonas aeruginosa [33] = assay: Antibacterial activity against Pseudomonas aeruginosa after 24 hr by disc diffusion method; type: functional
[34] = Antioxidant activity assessed as reduction of ferric ion after 30 min by spectrophotometric analysis; type: functional
[35] = tested on: Radical scavenging activity; assay: Antioxidant activity assessed as DPPH radical scavenging activity after 30 min by spectrophotometric analysis; type: functional

SMILES | MIC (Bacillus subtilis [1]) [mg/L] | inhibition of growth at 6.25 µM (HeLa [2]) [%] | MIC (Salmonella paratyphi [3]) [mg/L] | inhibition of growth at 50 µM (HeLa [4]) [%] | diameter of the inhibition zone (DIZ) (Candida albicans [5]) [mm] | MIC [7] [mg/L] | diameter of the inhibition zone (DIZ) (Escherichia coli [8]) [mm] | MIC (Vibrio cholerae [9]) [mg/L] | diameter of the inhibition zone (DIZ) (Trichophyton rubrum [10]) [mm] | MIC (Micrococcus luteus [11]) [mg/L] | MIC (Trichophyton rubrum [12]) [mg/L] | inhibition of growth at 25 µM (HeLa [13]) [%] | diameter of the inhibition zone (DIZ) (Staphylococcus aureus [15]) [mm] | MIC (Staphylococcus aureus [16]) [mg/L] | MIC (Candida albicans [17]) [mg/L] | diameter of the inhibition zone (DIZ) (Micrococcus luteus [18]) [mm] | IC50 (HeLa [19]) [µM] | diameter of the inhibition zone (DIZ) (Aspergillus niger [20]) [mm] | inhibition of growth at 12.5 µM (HeLa [21]) [%] | diameter of the inhibition zone (DIZ) (Salmonella paratyphi [22]) [mm] | further results
O=C(NCC(=O)N1c2ccccc2Sc2ccccc21)NN1C(=O)C(Cl)C1c1ccc([N+](=O)[O-])cc1 (centres undefined) | 250 (≈ 477 µM) | 23.6 | 125 (≈ 239 µM) | 73.2 | 14 | 250 (≈ 477 µM) | 15 | 250 (≈ 477 µM) | 5 | 250 (≈ 477 µM) | 250 (≈ 477 µM) | 56.5 | 4 | 250 (≈ 477 µM) | 62.5 (≈ 119 µM) | 3 | 18.3 | 9 | 41.8 | 7 | growth inhibition (GI) [6]: inactive; growth inhibition (GI) [14]: inactive; diameter of the inhibition zone (DIZ) (Vibrio cholerae [23]): 5 mm; MIC (Escherichia coli [24]): 62.5 mg/L (≈ 119 µM); growth inhibition (GI) [25]: Active; MIC (Aspergillus niger [26]): 500 mg/L (≈ 954 µM); diameter of the inhibition zone (DIZ) (Monascus purpureus [27]): 13 mm; diameter of the inhibition zone (DIZ) [28]: 4 mm; diameter of the inhibition zone (DIZ) (Bacillus subtilis [29]): 5 mm; MIC (Monascus purpureus [30]): 62.5 mg/L (≈ 119 µM); MIC (Pseudomonas aeruginosa [31]): 500 mg/L (≈ 954 µM); inhibition of growth at 100 µM (HeLa [32]): 89.5%
O=C(NCC(=O)N1c2ccccc2Sc2ccccc21)NN1C(=O)C(Cl)C1c1ccc(O)cc1 (centres undefined) | 125 (≈ 253 µM) | 0.123 | 62.5 (≈ 126 µM) | 37.4 | 13 | 125 (≈ 253 µM) | 5 | 125 (≈ 253 µM) | 8 | 62.5 (≈ 126 µM) | 250 (≈ 505 µM) | 19.1 | 9 | 125 (≈ 253 µM) | 62.5 (≈ 126 µM) | 12 | 84.1 | 8 | 5.04 | 12 | diameter of the inhibition zone (DIZ) (Pseudomonas aeruginosa [33]): 18 mm; diameter of the inhibition zone (DIZ) (Vibrio cholerae [23]): 9 mm; MIC (Escherichia coli [24]): 250 mg/L (≈ 505 µM); MIC (Aspergillus niger [26]): 62.5 mg/L (≈ 126 µM); diameter of the inhibition zone (DIZ) (Monascus purpureus [27]): 10 mm; diameter of the inhibition zone (DIZ) [28]: 13 mm; diameter of the inhibition zone (DIZ) (Bacillus subtilis [29]): 10 mm; MIC (Monascus purpureus [30]): 500 mg/L (≈ 1010 µM); MIC (Pseudomonas aeruginosa [31]): 62.5 mg/L (≈ 126 µM); inhibition of growth at 100 µM (HeLa [32]): 53%
O=C(NCC(=O)N1c2ccccc2Sc2ccccc21)NN1C(=O)C(Cl)C1c1ccc(Cl)cc1 (centres undefined) | 125 (≈ 243 µM) | 0.123 | 250 (≈ 487 µM) | 33.6 | 7 | 250 (≈ 487 µM) | 19 | 62.5 (≈ 122 µM) | 6 | 250 (≈ 487 µM) | 250 (≈ 487 µM) | 15.9 | 4 | 62.5 (≈ 122 µM) | 125 (≈ 243 µM) | 5 | 111 | 12 | 5.9 | 5 | diameter of the inhibition zone (DIZ) (Pseudomonas aeruginosa [33]): 5 mm; Activity [34]: Active; diameter of the inhibition zone (DIZ) (Vibrio cholerae [23]): 18 mm; MIC (Escherichia coli [24]): 62.5 mg/L (≈ 122 µM); MIC (Aspergillus niger [26]): 125 mg/L (≈ 243 µM); diameter of the inhibition zone (DIZ) (Monascus purpureus [27]): 12 mm; diameter of the inhibition zone (DIZ) [28]: 5 mm; diameter of the inhibition zone (DIZ) (Bacillus subtilis [29]): 7 mm; MIC (Monascus purpureus [30]): 62.5 mg/L (≈ 122 µM); MIC (Pseudomonas aeruginosa [31]): 250 mg/L (≈ 487 µM); EC50 [35]: 56 mg/L (≈ 109 µM); inhibition of growth at 100 µM (HeLa [32]): 44.3%
